{"source": "ChEMBL document CHEMBL1145498", "about": "“A systematic interaction map of validated kinase inhibitors with Ser/Thr kinases” (Proc Natl Acad Sci U S A, 2007)"}
{"molecular_target": "Ribosomal protein S6 kinase alpha-3 (Homo sapiens) (UniProt P51812)", "sequence (P51812 whole entry)": "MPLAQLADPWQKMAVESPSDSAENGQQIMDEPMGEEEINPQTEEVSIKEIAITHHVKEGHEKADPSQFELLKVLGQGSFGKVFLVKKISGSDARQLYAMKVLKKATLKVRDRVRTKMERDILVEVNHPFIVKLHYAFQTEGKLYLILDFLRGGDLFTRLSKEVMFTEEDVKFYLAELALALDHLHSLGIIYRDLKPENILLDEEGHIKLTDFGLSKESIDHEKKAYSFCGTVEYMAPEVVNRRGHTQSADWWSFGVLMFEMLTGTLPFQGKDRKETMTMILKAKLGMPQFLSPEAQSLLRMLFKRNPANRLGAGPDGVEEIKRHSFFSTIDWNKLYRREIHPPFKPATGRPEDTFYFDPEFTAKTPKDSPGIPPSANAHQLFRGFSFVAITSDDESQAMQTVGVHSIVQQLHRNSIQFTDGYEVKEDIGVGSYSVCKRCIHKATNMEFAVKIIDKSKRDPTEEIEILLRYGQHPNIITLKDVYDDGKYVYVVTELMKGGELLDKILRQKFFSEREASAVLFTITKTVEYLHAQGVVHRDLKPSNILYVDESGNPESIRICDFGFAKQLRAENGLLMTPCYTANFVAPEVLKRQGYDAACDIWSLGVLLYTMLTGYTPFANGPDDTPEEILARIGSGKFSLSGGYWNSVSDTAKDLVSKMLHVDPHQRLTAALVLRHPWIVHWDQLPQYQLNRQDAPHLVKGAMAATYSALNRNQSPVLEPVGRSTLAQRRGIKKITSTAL", "units": {"ΔTm": "°C"}}
{"smiles": "CCOC(=O)c1c(C)[nH]c(/C=C2\\C(=O)Nc3ccccc32)c1C", "ΔTm": 0.1}
{"smiles": "O=C1c2ccccc2-[n+]2ccc3c([nH]c4ccccc43)c21", "note": "[FASCAPLYSIN CHLORIDE]", "ΔTm": 0.7}
{"smiles": "O=C1NC(=O)c2c1c1c3ccccc3n3c1c1c2c2ccccc2n1C1CCC3O1", "ΔTm": -0.4}
{"smiles": "CCOC(=O)c1cnc2oc3ccc(O)cc3c2c1-c1ccccc1", "ΔTm": 1}
{"molecular_target": "Mitogen-activated protein kinase 11 (Homo sapiens, UniProt Q15759)", "sequence (Q15759 whole entry)": "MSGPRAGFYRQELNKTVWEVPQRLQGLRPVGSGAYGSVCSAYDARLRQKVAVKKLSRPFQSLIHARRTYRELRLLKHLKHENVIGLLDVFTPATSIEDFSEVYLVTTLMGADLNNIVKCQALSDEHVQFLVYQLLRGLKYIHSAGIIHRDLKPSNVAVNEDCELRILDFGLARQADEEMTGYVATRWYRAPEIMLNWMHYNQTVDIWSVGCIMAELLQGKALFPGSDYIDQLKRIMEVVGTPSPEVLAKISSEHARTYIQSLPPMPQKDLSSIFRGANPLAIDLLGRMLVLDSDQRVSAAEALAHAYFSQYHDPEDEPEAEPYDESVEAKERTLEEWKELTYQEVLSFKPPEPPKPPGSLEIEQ", "units": {"ΔTm": "°C"}}
{"smiles": "CCOC(=O)c1c(C)[nH]c(/C=C2\\C(=O)Nc3ccccc32)c1C", "ΔTm": -0.4}
{"smiles": "O=C1c2ccccc2-[n+]2ccc3c([nH]c4ccccc43)c21", "note": "[FASCAPLYSIN CHLORIDE]", "ΔTm": -1.3}
{"smiles": "O=C1NC(=O)c2c1c1c3ccccc3n3c1c1c2c2ccccc2n1C1CCC3O1", "ΔTm": -0.1}
{"smiles": "CCOC(=O)c1cnc2oc3ccc(O)cc3c2c1-c1ccccc1", "ΔTm": -0.6}
{"molecular_target": "Calcium/calmodulin-dependent protein kinase type 1D (Homo sapiens) (UniProt Q8IU85)", "sequence (Q8IU85 whole entry, looked up)": "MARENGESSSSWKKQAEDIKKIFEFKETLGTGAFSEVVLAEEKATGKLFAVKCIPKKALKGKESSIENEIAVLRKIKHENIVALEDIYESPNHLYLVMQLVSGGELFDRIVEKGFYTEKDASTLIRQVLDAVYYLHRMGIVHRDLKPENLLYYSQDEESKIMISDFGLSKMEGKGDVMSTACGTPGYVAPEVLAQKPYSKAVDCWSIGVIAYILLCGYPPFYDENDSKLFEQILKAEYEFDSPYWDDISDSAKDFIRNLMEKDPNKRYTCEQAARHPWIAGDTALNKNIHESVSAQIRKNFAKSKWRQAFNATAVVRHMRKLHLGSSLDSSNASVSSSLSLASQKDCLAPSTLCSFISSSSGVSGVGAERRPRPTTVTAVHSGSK", "units": {"ΔTm": "°C"}}
{"smiles": "CCOC(=O)c1c(C)[nH]c(/C=C2\\C(=O)Nc3ccccc32)c1C", "ΔTm": 0}
{"smiles": "O=C1c2ccccc2-[n+]2ccc3c([nH]c4ccccc43)c21", "note": "[FASCAPLYSIN CHLORIDE]", "ΔTm": -4.3}
{"smiles": "O=C1NC(=O)c2c1c1c3ccccc3n3c1c1c2c2ccccc2n1C1CCC3O1", "ΔTm": 1.6}
{"smiles": "CCOC(=O)c1cnc2oc3ccc(O)cc3c2c1-c1ccccc1", "ΔTm": 0.4}
{"molecular_target": "Glycogen synthase kinase-3 beta (Homo sapiens, UniProt P49841)", "units": {"ΔTm": "°C"}}
{"smiles": "CCOC(=O)c1c(C)[nH]c(/C=C2\\C(=O)Nc3ccccc32)c1C", "ΔTm": 2.3}
{"smiles": "O=C1c2ccccc2-[n+]2ccc3c([nH]c4ccccc43)c21", "note": "[FASCAPLYSIN CHLORIDE]", "ΔTm": 0.1}
{"smiles": "O=C1NC(=O)c2c1c1c3ccccc3n3c1c1c2c2ccccc2n1C1CCC3O1", "ΔTm": -0.2}
{"smiles": "CCOC(=O)c1cnc2oc3ccc(O)cc3c2c1-c1ccccc1", "ΔTm": 4.3}
{"molecular_target": "Dual specificity protein kinase CLK1 (Homo sapiens) (UniProt P49759)", "sequence (P49759 whole entry, looked up)": "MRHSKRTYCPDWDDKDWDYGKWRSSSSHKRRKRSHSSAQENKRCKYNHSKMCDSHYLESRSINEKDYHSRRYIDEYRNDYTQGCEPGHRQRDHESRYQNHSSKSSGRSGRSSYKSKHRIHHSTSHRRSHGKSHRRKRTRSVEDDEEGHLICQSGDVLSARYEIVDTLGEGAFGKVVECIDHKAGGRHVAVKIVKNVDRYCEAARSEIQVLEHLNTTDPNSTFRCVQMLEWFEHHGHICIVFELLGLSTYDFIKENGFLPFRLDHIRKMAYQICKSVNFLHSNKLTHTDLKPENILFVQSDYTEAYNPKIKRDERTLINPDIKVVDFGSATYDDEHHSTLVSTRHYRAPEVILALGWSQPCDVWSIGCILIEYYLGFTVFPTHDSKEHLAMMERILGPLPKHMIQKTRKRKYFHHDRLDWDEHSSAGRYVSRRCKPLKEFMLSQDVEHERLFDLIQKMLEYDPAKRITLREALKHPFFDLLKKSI", "units": {"ΔTm": "°C"}}
{"smiles": "CCOC(=O)c1c(C)[nH]c(/C=C2\\C(=O)Nc3ccccc32)c1C", "ΔTm": -1.1}
{"smiles": "O=C1c2ccccc2-[n+]2ccc3c([nH]c4ccccc43)c21", "note": "[FASCAPLYSIN CHLORIDE]", "ΔTm": -1.9}
{"smiles": "O=C1NC(=O)c2c1c1c3ccccc3n3c1c1c2c2ccccc2n1C1CCC3O1", "ΔTm": 3.3}
{"smiles": "CCOC(=O)c1cnc2oc3ccc(O)cc3c2c1-c1ccccc1", "ΔTm": 6.2}
{"molecular_target": "Serine/threonine-protein kinase 25 (Homo sapiens) (UniProt O00506)", "units": {"ΔTm": "°C"}}
{"smiles": "CCOC(=O)c1c(C)[nH]c(/C=C2\\C(=O)Nc3ccccc32)c1C", "ΔTm": 0.6}
{"smiles": "O=C1c2ccccc2-[n+]2ccc3c([nH]c4ccccc43)c21", "note": "[FASCAPLYSIN CHLORIDE]", "ΔTm": -1.5}
{"smiles": "O=C1NC(=O)c2c1c1c3ccccc3n3c1c1c2c2ccccc2n1C1CCC3O1", "ΔTm": 2.1}
{"smiles": "CCOC(=O)c1cnc2oc3ccc(O)cc3c2c1-c1ccccc1", "ΔTm": 0}
{"molecular_target": "T1, Serine/threonine-protein kinase PLK4 (Homo sapiens) (UniProt O00444)", "T1 sequence (whole entry)": "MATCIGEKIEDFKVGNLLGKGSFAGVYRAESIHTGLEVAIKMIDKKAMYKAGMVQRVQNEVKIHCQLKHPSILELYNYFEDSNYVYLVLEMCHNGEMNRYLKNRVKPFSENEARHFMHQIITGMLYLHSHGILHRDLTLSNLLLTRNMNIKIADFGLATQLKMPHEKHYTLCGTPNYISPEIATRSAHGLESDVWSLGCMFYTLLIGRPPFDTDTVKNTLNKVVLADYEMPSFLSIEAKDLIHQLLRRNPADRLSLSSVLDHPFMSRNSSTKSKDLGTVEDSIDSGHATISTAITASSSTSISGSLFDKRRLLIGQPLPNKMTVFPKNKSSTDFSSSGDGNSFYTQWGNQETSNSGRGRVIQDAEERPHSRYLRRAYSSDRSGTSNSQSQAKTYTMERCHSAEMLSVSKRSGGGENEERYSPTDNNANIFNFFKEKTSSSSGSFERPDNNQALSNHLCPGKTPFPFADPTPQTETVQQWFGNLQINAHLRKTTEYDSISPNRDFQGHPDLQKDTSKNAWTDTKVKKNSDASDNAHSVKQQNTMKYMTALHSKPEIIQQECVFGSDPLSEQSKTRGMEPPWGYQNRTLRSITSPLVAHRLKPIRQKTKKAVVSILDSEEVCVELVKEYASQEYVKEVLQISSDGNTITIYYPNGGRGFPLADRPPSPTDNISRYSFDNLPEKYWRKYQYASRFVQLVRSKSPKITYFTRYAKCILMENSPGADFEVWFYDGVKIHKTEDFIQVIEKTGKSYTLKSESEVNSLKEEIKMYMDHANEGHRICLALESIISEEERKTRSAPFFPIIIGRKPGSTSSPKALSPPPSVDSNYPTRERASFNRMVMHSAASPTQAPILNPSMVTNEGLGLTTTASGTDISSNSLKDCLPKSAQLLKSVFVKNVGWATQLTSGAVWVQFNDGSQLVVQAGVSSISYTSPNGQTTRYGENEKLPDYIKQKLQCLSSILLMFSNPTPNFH", "units": {"ΔTm": "°C"}}
{"smiles": "CCOC(=O)c1c(C)[nH]c(/C=C2\\C(=O)Nc3ccccc32)c1C", "ΔTm": 2.3}
{"smiles": "O=C1c2ccccc2-[n+]2ccc3c([nH]c4ccccc43)c21", "note": "[FASCAPLYSIN CHLORIDE]", "ΔTm": -0.1}
{"smiles": "O=C1NC(=O)c2c1c1c3ccccc3n3c1c1c2c2ccccc2n1C1CCC3O1", "ΔTm": 0}
{"smiles": "CCOC(=O)c1cnc2oc3ccc(O)cc3c2c1-c1ccccc1", "ΔTm": 2.8}
{"molecular_target": "Cyclin-dependent kinase 6 (Homo sapiens) (UniProt Q00534)", "sequence (Q00534 whole entry)": "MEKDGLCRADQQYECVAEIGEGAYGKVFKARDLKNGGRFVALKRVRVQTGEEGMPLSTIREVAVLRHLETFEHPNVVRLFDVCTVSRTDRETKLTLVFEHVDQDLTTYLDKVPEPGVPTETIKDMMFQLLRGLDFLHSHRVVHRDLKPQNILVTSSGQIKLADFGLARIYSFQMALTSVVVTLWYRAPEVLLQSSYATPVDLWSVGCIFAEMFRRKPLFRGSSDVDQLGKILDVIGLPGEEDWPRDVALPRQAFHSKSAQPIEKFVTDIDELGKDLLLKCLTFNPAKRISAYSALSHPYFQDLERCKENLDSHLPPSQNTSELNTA", "units": {"ΔTm": "°C"}}
{"smiles": "CCOC(=O)c1c(C)[nH]c(/C=C2\\C(=O)Nc3ccccc32)c1C", "ΔTm": -5}
{"smiles": "O=C1c2ccccc2-[n+]2ccc3c([nH]c4ccccc43)c21", "note": "[FASCAPLYSIN CHLORIDE]", "ΔTm": 0.2}
{"smiles": "O=C1NC(=O)c2c1c1c3ccccc3n3c1c1c2c2ccccc2n1C1CCC3O1", "ΔTm": -0.3}
{"smiles": "CCOC(=O)c1cnc2oc3ccc(O)cc3c2c1-c1ccccc1", "ΔTm": 0.1}
{"molecular_target": "Serine/threonine-protein kinase PAK 5 (Homo sapiens) (UniProt Q9P286)", "sequence (Q9P286 whole entry, looked up)": "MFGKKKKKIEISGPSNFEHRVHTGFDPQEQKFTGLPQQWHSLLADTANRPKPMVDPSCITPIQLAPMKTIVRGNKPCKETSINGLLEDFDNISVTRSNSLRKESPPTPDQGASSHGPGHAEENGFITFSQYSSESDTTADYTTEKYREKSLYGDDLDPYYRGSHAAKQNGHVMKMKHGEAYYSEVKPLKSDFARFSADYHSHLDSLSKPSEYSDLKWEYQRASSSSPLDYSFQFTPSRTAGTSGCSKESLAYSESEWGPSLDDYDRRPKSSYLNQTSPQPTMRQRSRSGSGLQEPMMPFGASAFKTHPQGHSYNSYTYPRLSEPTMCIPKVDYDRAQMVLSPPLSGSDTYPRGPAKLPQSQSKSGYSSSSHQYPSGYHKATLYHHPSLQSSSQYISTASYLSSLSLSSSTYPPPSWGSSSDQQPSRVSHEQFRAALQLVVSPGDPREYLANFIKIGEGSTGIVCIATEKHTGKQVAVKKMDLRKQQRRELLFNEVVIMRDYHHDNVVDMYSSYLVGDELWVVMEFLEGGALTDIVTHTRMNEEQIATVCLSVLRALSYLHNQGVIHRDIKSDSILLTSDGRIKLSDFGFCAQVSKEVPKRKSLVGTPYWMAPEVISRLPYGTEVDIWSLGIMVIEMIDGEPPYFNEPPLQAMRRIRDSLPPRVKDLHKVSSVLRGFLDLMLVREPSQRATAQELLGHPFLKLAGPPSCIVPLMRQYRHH", "units": {"ΔTm": "°C"}}
{"smiles": "CCOC(=O)c1c(C)[nH]c(/C=C2\\C(=O)Nc3ccccc32)c1C", "ΔTm": -0.5}
{"smiles": "O=C1c2ccccc2-[n+]2ccc3c([nH]c4ccccc43)c21", "note": "[FASCAPLYSIN CHLORIDE]", "ΔTm": 0.3}
{"smiles": "O=C1NC(=O)c2c1c1c3ccccc3n3c1c1c2c2ccccc2n1C1CCC3O1", "ΔTm": 2.4}
{"smiles": "CCOC(=O)c1cnc2oc3ccc(O)cc3c2c1-c1ccccc1", "ΔTm": 0.5}
{"molecular_target": "T2, 3-phosphoinositide-dependent protein kinase 1 (Homo sapiens) (UniProt O15530)", "T2 sequence (whole entry)": "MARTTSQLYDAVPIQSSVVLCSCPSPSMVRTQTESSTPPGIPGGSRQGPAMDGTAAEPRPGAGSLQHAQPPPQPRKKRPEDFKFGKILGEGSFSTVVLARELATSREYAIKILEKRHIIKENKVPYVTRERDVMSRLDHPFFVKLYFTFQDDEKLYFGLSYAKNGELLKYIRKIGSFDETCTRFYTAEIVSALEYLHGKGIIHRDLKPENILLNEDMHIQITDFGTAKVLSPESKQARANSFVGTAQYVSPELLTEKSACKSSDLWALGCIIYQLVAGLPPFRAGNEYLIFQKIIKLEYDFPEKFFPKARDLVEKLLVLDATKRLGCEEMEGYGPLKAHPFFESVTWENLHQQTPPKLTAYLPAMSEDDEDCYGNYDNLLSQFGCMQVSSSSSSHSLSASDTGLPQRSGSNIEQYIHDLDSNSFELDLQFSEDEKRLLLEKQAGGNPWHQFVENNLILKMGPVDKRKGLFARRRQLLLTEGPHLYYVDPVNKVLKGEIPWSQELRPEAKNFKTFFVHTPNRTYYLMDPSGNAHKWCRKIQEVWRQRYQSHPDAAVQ", "units": {"ΔTm": "°C"}}
{"smiles": "CCOC(=O)c1c(C)[nH]c(/C=C2\\C(=O)Nc3ccccc32)c1C", "ΔTm": 0.2}
{"smiles": "O=C1c2ccccc2-[n+]2ccc3c([nH]c4ccccc43)c21", "note": "[FASCAPLYSIN CHLORIDE]", "ΔTm": -2.7}
{"smiles": "O=C1NC(=O)c2c1c1c3ccccc3n3c1c1c2c2ccccc2n1C1CCC3O1", "ΔTm": -0.1}
{"smiles": "CCOC(=O)c1cnc2oc3ccc(O)cc3c2c1-c1ccccc1", "ΔTm": -0.5}
{"molecular_target": "Serine/threonine-protein kinase 26 (Homo sapiens) (UniProt Q9P289)", "sequence (Q9P289 2-416 limits assumed)": "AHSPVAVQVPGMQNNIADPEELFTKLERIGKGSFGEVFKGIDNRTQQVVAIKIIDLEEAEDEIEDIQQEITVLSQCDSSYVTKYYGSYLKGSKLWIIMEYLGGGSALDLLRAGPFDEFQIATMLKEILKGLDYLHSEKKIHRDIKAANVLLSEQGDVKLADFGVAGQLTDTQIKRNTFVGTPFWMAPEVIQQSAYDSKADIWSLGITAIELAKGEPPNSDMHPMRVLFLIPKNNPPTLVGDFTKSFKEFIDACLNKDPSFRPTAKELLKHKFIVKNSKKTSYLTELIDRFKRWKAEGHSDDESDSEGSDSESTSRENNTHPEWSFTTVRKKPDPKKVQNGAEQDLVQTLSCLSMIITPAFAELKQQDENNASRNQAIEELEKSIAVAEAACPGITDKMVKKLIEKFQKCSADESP", "units": {"ΔTm": "°C"}}
{"smiles": "CCOC(=O)c1c(C)[nH]c(/C=C2\\C(=O)Nc3ccccc32)c1C", "ΔTm": -0.7}
{"smiles": "O=C1c2ccccc2-[n+]2ccc3c([nH]c4ccccc43)c21", "note": "[FASCAPLYSIN CHLORIDE]", "ΔTm": -2.5}
{"smiles": "O=C1NC(=O)c2c1c1c3ccccc3n3c1c1c2c2ccccc2n1C1CCC3O1", "ΔTm": -0.6}
{"smiles": "CCOC(=O)c1cnc2oc3ccc(O)cc3c2c1-c1ccccc1", "ΔTm": 0}
{"molecular_target": "Cyclin-dependent kinase-like 1 (Homo sapiens) (UniProt Q00532)", "sequence (Q00532 whole entry)": "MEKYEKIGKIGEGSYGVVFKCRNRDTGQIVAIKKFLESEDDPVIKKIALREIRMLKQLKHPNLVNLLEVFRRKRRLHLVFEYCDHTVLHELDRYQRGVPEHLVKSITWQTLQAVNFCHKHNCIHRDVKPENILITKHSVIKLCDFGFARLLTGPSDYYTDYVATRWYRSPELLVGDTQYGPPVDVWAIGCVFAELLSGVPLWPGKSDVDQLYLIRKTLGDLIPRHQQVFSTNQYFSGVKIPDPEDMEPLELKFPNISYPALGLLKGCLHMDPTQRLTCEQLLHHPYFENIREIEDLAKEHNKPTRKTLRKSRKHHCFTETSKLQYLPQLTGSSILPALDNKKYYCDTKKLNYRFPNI", "units": {"ΔTm": "°C"}}
{"smiles": "CCOC(=O)c1c(C)[nH]c(/C=C2\\C(=O)Nc3ccccc32)c1C", "ΔTm": 0.5}
{"smiles": "O=C1c2ccccc2-[n+]2ccc3c([nH]c4ccccc43)c21", "note": "[FASCAPLYSIN CHLORIDE]", "ΔTm": -0.5}
{"smiles": "O=C1NC(=O)c2c1c1c3ccccc3n3c1c1c2c2ccccc2n1C1CCC3O1", "ΔTm": -0.4}
{"smiles": "CCOC(=O)c1cnc2oc3ccc(O)cc3c2c1-c1ccccc1", "ΔTm": -0.3}
{"molecular_target": "STE20-like serine/threonine-protein kinase (Homo sapiens) (UniProt Q9H2G2)", "units": {"ΔTm": "°C"}}
{"smiles": "CCOC(=O)c1c(C)[nH]c(/C=C2\\C(=O)Nc3ccccc32)c1C", "ΔTm": 1.6}
{"smiles": "O=C1c2ccccc2-[n+]2ccc3c([nH]c4ccccc43)c21", "note": "[FASCAPLYSIN CHLORIDE]", "ΔTm": -0.9}
{"smiles": "O=C1NC(=O)c2c1c1c3ccccc3n3c1c1c2c2ccccc2n1C1CCC3O1", "ΔTm": 0.1}
{"smiles": "CCOC(=O)c1cnc2oc3ccc(O)cc3c2c1-c1ccccc1", "ΔTm": 2.3}
{"molecular_target": "T3, Serine/threonine-protein kinase Nek2 (Homo sapiens) (UniProt P51955)", "T3 sequence (whole entry)": "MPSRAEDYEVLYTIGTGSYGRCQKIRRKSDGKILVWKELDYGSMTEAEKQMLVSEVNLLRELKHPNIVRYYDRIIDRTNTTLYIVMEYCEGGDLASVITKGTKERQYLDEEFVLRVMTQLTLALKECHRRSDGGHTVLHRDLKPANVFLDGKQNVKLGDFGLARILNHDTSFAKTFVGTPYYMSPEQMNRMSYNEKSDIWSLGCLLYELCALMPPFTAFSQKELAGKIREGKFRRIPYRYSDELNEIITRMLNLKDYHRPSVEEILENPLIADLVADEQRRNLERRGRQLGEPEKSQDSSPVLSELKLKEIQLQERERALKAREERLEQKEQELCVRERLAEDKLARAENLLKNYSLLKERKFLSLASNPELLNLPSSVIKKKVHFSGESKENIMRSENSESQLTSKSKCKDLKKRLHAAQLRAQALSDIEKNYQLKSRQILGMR", "units": {"ΔTm": "°C"}}
{"smiles": "CCOC(=O)c1c(C)[nH]c(/C=C2\\C(=O)Nc3ccccc32)c1C", "ΔTm": 0.5}
{"smiles": "O=C1c2ccccc2-[n+]2ccc3c([nH]c4ccccc43)c21", "note": "[FASCAPLYSIN CHLORIDE]", "ΔTm": -2}
{"smiles": "O=C1NC(=O)c2c1c1c3ccccc3n3c1c1c2c2ccccc2n1C1CCC3O1", "ΔTm": 0.3}
{"smiles": "CCOC(=O)c1cnc2oc3ccc(O)cc3c2c1-c1ccccc1", "ΔTm": 0.9}
{"molecular_target": "Serine/threonine-protein kinase Chk2 (Homo sapiens, UniProt O96017)", "sequence (O96017 whole entry)": "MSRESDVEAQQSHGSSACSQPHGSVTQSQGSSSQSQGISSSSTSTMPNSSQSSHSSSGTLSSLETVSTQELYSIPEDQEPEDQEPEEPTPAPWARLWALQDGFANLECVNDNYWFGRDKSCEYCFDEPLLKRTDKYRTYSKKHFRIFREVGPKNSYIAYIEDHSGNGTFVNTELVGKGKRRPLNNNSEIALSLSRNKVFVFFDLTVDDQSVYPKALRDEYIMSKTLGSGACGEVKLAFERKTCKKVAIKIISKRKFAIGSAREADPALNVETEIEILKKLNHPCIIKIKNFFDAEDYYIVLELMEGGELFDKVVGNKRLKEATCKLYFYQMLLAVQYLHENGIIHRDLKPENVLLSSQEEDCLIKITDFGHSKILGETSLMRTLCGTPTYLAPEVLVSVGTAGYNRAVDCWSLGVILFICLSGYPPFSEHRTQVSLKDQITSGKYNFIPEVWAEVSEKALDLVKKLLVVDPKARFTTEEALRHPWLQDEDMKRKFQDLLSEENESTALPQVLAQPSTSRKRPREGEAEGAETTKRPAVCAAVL", "units": {"ΔTm": "°C"}}
{"smiles": "CCOC(=O)c1c(C)[nH]c(/C=C2\\C(=O)Nc3ccccc32)c1C", "ΔTm": 0.7}
{"smiles": "O=C1c2ccccc2-[n+]2ccc3c([nH]c4ccccc43)c21", "note": "[FASCAPLYSIN CHLORIDE]", "ΔTm": 4.9}
{"smiles": "O=C1NC(=O)c2c1c1c3ccccc3n3c1c1c2c2ccccc2n1C1CCC3O1", "ΔTm": 3.9}
{"smiles": "CCOC(=O)c1cnc2oc3ccc(O)cc3c2c1-c1ccccc1", "ΔTm": 0.8}
{"molecular_target": "Serine/threonine-protein kinase pim-1 (Homo sapiens) (UniProt P11309)", "sequence (P11309 whole entry, looked up)": "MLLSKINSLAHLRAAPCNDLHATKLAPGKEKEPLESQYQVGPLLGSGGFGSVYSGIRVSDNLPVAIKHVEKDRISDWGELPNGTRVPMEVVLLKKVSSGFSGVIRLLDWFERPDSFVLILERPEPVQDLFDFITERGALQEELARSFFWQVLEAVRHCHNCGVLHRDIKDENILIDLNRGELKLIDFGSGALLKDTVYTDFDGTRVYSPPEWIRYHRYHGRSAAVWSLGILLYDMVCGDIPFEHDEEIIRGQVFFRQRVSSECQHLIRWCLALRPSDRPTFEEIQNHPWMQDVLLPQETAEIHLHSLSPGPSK", "units": {"ΔTm": "°C"}}
{"smiles": "CCOC(=O)c1c(C)[nH]c(/C=C2\\C(=O)Nc3ccccc32)c1C", "ΔTm": -0.1}
{"smiles": "O=C1c2ccccc2-[n+]2ccc3c([nH]c4ccccc43)c21", "note": "[FASCAPLYSIN CHLORIDE]", "ΔTm": -0.8}
{"smiles": "O=C1NC(=O)c2c1c1c3ccccc3n3c1c1c2c2ccccc2n1C1CCC3O1", "ΔTm": 6.2}
{"smiles": "CCOC(=O)c1cnc2oc3ccc(O)cc3c2c1-c1ccccc1", "ΔTm": 5.1}
